One data set in a line: Emulsion stability tests. It is filed as physicochemical. The note with it: for Classification of Emulsion: 2% ester, 7% myristyl propionate, 91% water. The method, then: Emulsion stability tests were performed on the esters (I), and for comparison on the precursor esters (Ia), to determine the extent to which each stabilized a standardized solution of water and an oil, using a common procedure consisting of homogenizing a mixture containing the test ester (2%), myristyl propionate (7%), and water (91%). While two emulsifiers are normally used to prepare a cosmetic formulation, e.g. one with a high HLB and the other with a low HLB, the test method herein using only one emulsifier, i.e. the test ester, is fully indicative of the emulsifying attributes of these esters.
The tests were performed with emulsions (500 g), prepared by combining the test ester (10.0 g), myristyl propionate (35 g), and distilled water (455 g) in a container and homogenizing the contents for one minute, via a Kika-Werk Ultra-Turrax S D-45 homogenizer. The emulsions were poured into a one pound flint jar, capped, and periodically examined over a 55 day period.

Data set [1] can be described thus: Dispersion stability tests. It is filed as physicochemical. The method, then:
The dispersion stability tests were performed on the esters (I) to determine the extent each was able to disperse itself in an aqueous medium.
The dispersions were prepared by homogenizing a mixture of the test ester and water, after which repeated examination of the sample was effected for a period of 55 days. This test method is fully indicative of the dispersibility of these esters (I).
The dispersion tests were performed with the esters at 0.5% and 5.0% active levels in water, prepared by combining the test ester with distilled water, and homogenizing the mixture for one to three minutes, via a Kika-Werk Ultra-Turrax S D-45 homogenizer. The dispersions were poured into an eight ounce flint jar, capped, and periodically examined over a 55 day period.

A short description of data set [2]: HLB determination (weighted average method). It is filed as physicochemical. From the text: Hydrophilic-Lipophilic Balance or HLB is a means of associating the hydrophilic and lipophilic characteristics between two surfactants. A "weighted average" method was used to determine the HLB of the esters (I), and by comparison of the precursor ester (Ia), in which two emulsifiers of known HLB values along with the test ester were incorporated in a mixture of mineral oil and water. Evaluation and HLB determination of each of a series of prepared emulsion samples were effected by visual inspection.
The HLB of the mixture "m" is calculated from the sum of the HLB contributions of each surfactant, "a", "b", "c", per Equation 2 which describes a system of oil, water, and three surfactants.
Given that [HLB]m, [HLB]a, and [HLB]b, are known, and the ideal amount of "a", "b", and "c" to prepare a perfect emulsion has been determined, then by rearrangement of Eq. 2, the HLB of "c" can be calculated by Equation 3.
To obtain the HLB of the test ester as surfactant "c", a series of formulations was prepared in which the known surfactant sorbitan monostearate (SMS) as "a" and the known surfactant POE 20 sorbitan monostearate (POE 20 SMS) as "b" were varied in amount (wt. %) relative to each other at a constant amount (1 wt. %) of "c", until an optimum emulsion was obtained. Different combinations of "a" and "b" were used to vary the HLB of "c", for emulsifying a 40:56 (wt. %) mixture of paraffin oil and distilled water (totaling 96 wt. %).
To prepare the emulsions, surfactants "a", "b", and "c", and the paraffin oil were combined in a 150 ml beaker and heated slowly with agitation to 70°-80° C. The value of "X" in each formulation was predetermined by rearranging Eq. 3 to solve for X, and then inserting into the equation various [HLB]c values for the test ester (i.e., 2, 3, 4, 5, 6 . . . ). The [HLB]c values chosen reflected a range that would likely contain the actual HLB of the test ester. Hot distilled water (70°-80° C.) was then slowly added with agitation. The total weight of all these reagents was 100 grams. The resulting emulsion was allowed to cool, with continued agitation, until the temperature dropped below 30° C.
A series of emulsions for each test was prepared, one at a time, and then examined as a set. Each sample within the series was evaluated and graded according to the quality of the emulsion by visual examination of droplet size.

The next data set concerns Aspergillus niger. Description: Antimicrobial study against Aspergillus niger (mold). Particulars: methylolated C8/10 10,800 ppm, methylolated lauric 11,400 ppm, DMDMH 3,000 ppm, others 14,700 ppm. Type of data set: cell-based. The method, then:
(§1) The antimicrobial properties of typical esters (I) and (Ia) were tested by minimum inhibitory concentration (MIC) tests, along with certain known substances, against […] strains of organisms: a mold, Aspergillus niger; a gram-positive bacteria, Staphylococcus aureus; and two gram-negative bacteria, Escherichia coli and Pseudomonas aeruginosa. […] These tests were used to determine any effect on biocidal activity of the varying chain length of the ester.
(§2) The known substances, on which identical tests were also performed, included the biocide, dimethyloldimethylhydantoin or DMDMH (iv), and a series of three surfactants, i.e., the three common emulsifiers, sodium lauryl sulfate (SLS); ethylene glycol distearate (EGDS), in the form of the commercial product PEGOSPERSE 50 DS (Lonza Inc.); and polyoxyethylene 20 sorbitan monoleate (POE 20 SMO), in the form of the commercial product GLYCOSPERSE 0 20 (Lonza Inc.).
(§3) The tests entailed contaminating a preexisting micro-colony with a known quantity (ppm, concentration) of test material. Each colony was then examined periodically over a one week period. […] A test was deemed non-efficacious when there was no decrease in colony size. In an effort to avoid any possible solvent effect, the micro-study was conducted in a totally aqueous solvent system without use of any other solvent.

In a further data set the test system is Escherichia coli. Description: Antimicrobial study against Escherichia coli (gram-negative bacteria). Type of data set: cell-based. Particulars: methylolated C8/10 10,800 ppm, methylolated lauric 11,400 ppm, DMDMH 3,000 ppm, others 14,700 ppm. The method, then:
as §1, §2, §3

In the next data set the test system is Staphylococcus aureus. Put plainly: Antimicrobial study against Staphylococcus aureus (gram-positive bacteria). It is filed as cell-based. The note with it: methylolated C8/10 10,800 ppm, methylolated lauric 11,400 ppm, DMDMH 3,000 ppm, others 14,700 ppm. The method, then: as §1, §2, §3
Another data set has as its system Pseudomonas aeruginosa. Description: Antimicrobial study against Pseudomonas aeruginosa (gram-negative bacteria). The note with it: methylolated C8/10 10,800 ppm, methylolated lauric 11,400 ppm, DMDMH 3,000 ppm, others 14,700 ppm. It is filed as cell-based. The method, then:
as §1, §2, §3

This is an account of results in patent US5100907A, “Hydantoin esters” (Lonza, Inc., priority 1990, dated 1992).

Turning to “2-(3-hydroxymethyl-5,5-dimethyl-1,3-diazacyclopentane-2,4-dion-1-yl)-ethylester of coconut fatty acid [Coconut Methylolated Ester]”, in the data set “Emulsion stability tests”, the “ability to stabilize emulsions” value is “the best emulsifiers tested” and the “duration of stabilized emulsions” value is on record as “more than 22 days”. For the same compound, the “stability of dispersions in water” value in data set [1] was “stable for weeks”.

Take “2-(5,5-dimethyl-1,3-diazacyclopentane-2,4-dion-1-yl)-ethyl ester of isostearic acid [Isostearic Non-Methylolated Ester]”: the “Average HLB” value in data set [2] amounted to 7.0. The “HLB Range” value in data set [2] is 6-7. Moreover, the “Classification of Emulsion” value in the data set “Emulsion stability tests” (7 Days after preparation), in the data set “Emulsion stability tests” (22 Days after preparation) and in the data set “Emulsion stability tests” (55 Days after preparation) was 2-Phase each time.

`CC(=O)OCCN1C(=O)NC(=O)C1(C)C` [Acetic Non-Methylolated Ester, 2-(5,5-dimethyl-1,3-diazacyclopentane-2,4-dion-1-yl)-ethyl ester of acetic acid]: in data set [2], the “Average HLB” value was 7.0. For the same compound, in data set [2], the “HLB Range” value is 6-8. Moreover, the “Classification of Emulsion” value in “Emulsion stability tests” (2 Hours after preparation), in “Emulsion stability tests” (7 Days after preparation), in “Emulsion stability tests” (22 Days after preparation) and in “Emulsion stability tests” (55 Days after preparation) was 2-Phase in each case.

In the case of `CCCCCCCCCCCC(=O)OCCN1C(=O)NC(=O)C1(C)C` [Non-Methylolated Lauric Ester, 2-(5,5-dimethyl-1,3-diazacyclopentane-2,4-dion-1-yl)-ethyl ester of lauric acid], the “Colony Count” value in the data set with Aspergillus niger (Day 0) is given as 300 × 1,000; with Aspergillus niger (Day 1), 200 × 1,000; in the data set with Aspergillus niger (Day 2) it was 200 × 1,000; with Aspergillus niger (Day 3) it was 220 × 1,000; with Aspergillus niger (Day 7), 150 × 1,000; in the data set on Escherichia coli (Day 0), “TNC”. Also, the “Colony Count” value in the data set with Escherichia coli (Day 1) is listed as “TNC”; with Escherichia coli (Day 2) it was “TNC”; with Escherichia coli (Day 3) it was “TNC”; in the data set on Escherichia coli (Day 7), “TNC”; in the data set with Staphylococcus aureus (Day 0) it was “TNC”; with Staphylococcus aureus (Day 1), 500 × 1,000. The “Colony Count” value with Staphylococcus aureus (Day 2) is 3,000 × 1,000; in the data set on Staphylococcus aureus (Day 3) it was “TNC”; in the data set with Staphylococcus aureus (Day 7) it was 30 × 1,000; in the data set with Pseudomonas aeruginosa (Day 0), “TNC”; with Pseudomonas aeruginosa (Day 1), “TNC”; in the data set on Pseudomonas aeruginosa (Day 2), “TNC”. For the same compound, the results for the “Colony Count” value with Pseudomonas aeruginosa (Day 3) and in the data set with Pseudomonas aeruginosa (Day 7) were 250 × 1,000 and “TNC”, respectively. For the same compound, in data set [2], the “Average HLB” value is reported as 6.5. Also, the “HLB Range” value in data set [2] is recorded as 5-7.

On to `CCCCCCCC/C=C\CCCCCCCC(=O)OCCN1C(=O)NC(=O)C1(C)C` [Oleic Non-Methylolated Ester, 2-(5,5-dimethyl-1,3-diazacyclopentane-2,4-dion-1-yl)-ethyl ester of oleic acid], for which, in data set [2], the “Average HLB” value is listed as 8.5. In addition, the “HLB Range” value in data set [2] is 8-9. Moreover, the “Classification of Emulsion” value in the data set “Emulsion stability tests” (7 Days after preparation), in “Emulsion stability tests” (22 Days after preparation) and in the data set “Emulsion stability tests” (55 Days after preparation) was 2-Phase in each case.

As for `CCCCCCCCCCCCCCCCCC(=O)OCCN1C(=O)NC(=O)C1(C)C` [Stearic Non-Methylolated Ester, 2-(5,5-dimethyl-1,3-diazacyclopentane-2,4-dion-1-yl)-ethyl ester of stearic acid], in data set [2], the “Average HLB” value came out at 1.5. In addition, the “HLB Range” value in data set [2] is on record as 1-3. The “Classification of Emulsion” value in the data set “Emulsion stability tests” (2 Hours after preparation), in “Emulsion stability tests” (7 Days after preparation), in the data set “Emulsion stability tests” (22 Days after preparation) and in “Emulsion stability tests” (55 Days after preparation) was 2-Phase in each case.

Take “mixture of the 2-(3-hydroxymethyl-5,5-dimethyl-1,3-diazacyclopentane-2,4-dion-1-yl)-ethylesters of caprylic acid and capric acid [Methylolated C8/10 Ester]”: the “ability to stabilize emulsions” value in “Emulsion stability tests” is reported as “generally unable to stabilize an emulsion for more than two hours”.
